Measured values from US7071178B2, “Use of vitamin D-derivatives in the treatment of osteoporosis and related bone disorders, as well as novel vitamin D3-derivatives” (Leo Pharmaceutical Products, Ltd., priority 2000, dated 2006).

How the values were obtained:
[1] = system: OVX rats; test: OVX rat model on osteoporosis: serum calcium; format: in vivo; design: key to Effect on serum calcium vs 1,25D3: <: less effect than the reference dose of 1,25D3 (0.25 ug/kg); <=: less or the same effect as the reference dose of 1,25D3 (0.25 ug/kg); =: same effect as the reference dose of 1,25D3 (0.25 ug/kg); =>: same or better effect as the reference dose of 1,25D3 (0.25 ug/kg); >: better effect than the reference dose of 1,25D3 (0.25 ug/kg); conditions: for Effect on serum calcium vs 1,25D3 / Effect on serum calcium vs Ovx contr: oral 28 days
Text: (§1) Pharmacological Methods—OVX Rat Model on Osteoporosis
(§2) To study bone anabolic properties and the effects of the vitamin D analogues of the present invention in preventing or treating demineralisation of the skeleton in vivo, a 4 weeks OVX rat model was used:
(§3) An ovariectomized rat model (OVX model), orally dosed for 28 days is useful for screening of vitamin D analogues. In this model ovariectomy produces alterations in the cancellous network identical to those seen in the human skeleton during ageing and the menopause. Besides this the model and the following analyses can be performed under very standardised conditions. 1α,25(OH)2D3 is used as a reference compound.
(§4) Female Sprague Dawley rats weighing approximately 130 g (40–45 days old) were purchased from MB, Ejby, Denmark. The animals were fed a commercial diet and allowed free access to food and drinking water. The animals were split into groups receiving differential treatment.
(§5) The animals were anaesthetised and ovariectomized through a dorsal incision.
(§6) Treatment of OVX animals was started 2 weeks after ovariectomy.
(§7) The animals were dosed orally for 28 days. The oral dosage was by gavage 0.1 ml/100 g bodyweight. The bodyweight of each animal was recorded every day prior to oral dosing. On day 7, 14, 21 and 28 the animals were housed separately for 24 hours in metabolic cages for collection of urine. Urine was frozen at −20° C. for later calcium measurement.
At day 28 the animals were anaesthetised and 2 ml of blood was obtained either by heart puncture or from the orbital vein, after this the animals were euthanized by CO2. The serum fraction was then removed and frozen at −20° C. for later measurement of calcium, phosphorous and creatinine.
(§8) Effect of Compound 145 compared to the reference dose of 1,25(OH)2D3 (1,25D3) (0.25 μg/kg) and compared to the OVX control group (shown in %) are shown in Tables 1 to 4.

[2] = system: OVX rats; test: OVX rat model on osteoporosis: biomechanical test of bone strength; format: in vivo; design: key to Effect on bone strength, Femor. Meta., vs 1,25D3 / Effect on bone strength, L3, vs 1,25D3 / Effect on bone strength, Femor. Dia., vs 1,25D3: <: less effect than the reference dose of 1,25D3 (0.25 ug/kg); <=: less or the same effect as the reference dose of 1,25D3 (0.25 ug/kg); =: same effect as the reference dose of 1,25D3 (0.25 ug/kg); =>: same or better effect as the reference dose of 1,25D3 (0.25 ug/kg); >: better effect than the reference dose of 1,25D3 (0.25 ug/kg); conditions: oral 28 days
Experimental: FIG. 2 is a graphic illustration of the biomechanical test of the lumbal vertebrae, L3. The vertebral body cylinder were tested along the proximal-distal axis in a materials testing machine (Alwetron TCT 5, Lorentzen and Wettre, Stockholm, Sweden) at a constant deformation rate of 2 mm/min. During compression, load-deformation curves were recorded and stored on a PC (ProLinea 4/33, Compaq, USA). Fmax is the maximum point on the load deforming curve.
The rats were treated according to the OVX rat model described herein, and wherein the animal groups received treatment according to the same scheme as for FIG. 1. A statistical analysis is shown in the graphic illustration, cf. description for FIG. 1.
as §1, §2, §3, §4, §5, §6, §7
Left and right femur, left and right tibia, lumbal vertebrae 3 and 4 (L3 and L4) were removed and cleaned for all soft- and connecting tissue. Left femur, left and right tibia and L4 were dried in an oven at 50–60° C. for at least 24 hours and immediately hereafter weighed. The bones were burned in an oven at 800° C. for 4 hours, dissolved in 1N HCl, and analysed for calcium content in a Hitachi 911 autoanalyser. Right femur and L3 were kept in 0.9% NaCl and frozen at −20° C. for later biomechanical testing performed by Jesper Skovhus Thomsen and Lis Mosekilde at Aarhus University, measuring various biomechanical parameters.
as §8

Which results are given for `C=C1C(=CC=C2CCCC3(C)C2CCC3C(C)CSc2ccc(C(C)(C)O)cc2)CC(O)CC1O` [Compound 145, 1(S),3(R)-Dihydroxy-20(R)-(4-((1-hydroxy-1-methyl)ethyl)phenylthiomethyl)-9,10-seco-pregna-5(Z),7(E),10(19)-triene]?
Effect on serum calcium vs 1,25D3 ([1]; 1 μg/kg, MTR/16): No; Effect on serum calcium vs Ovx contr ([1]; 1 μg/kg, MTR/16): 0%; Effect on serum calcium vs 1,25D3 ([1]; 10 μg/kg, MTR/16): No; Effect on serum calcium vs Ovx contr ([1]; 10 μg/kg, MTR/16): 3%; Effect on serum calcium vs 1,25D3 ([1]; 10 μg/kg, MTR/23): <; Effect on serum calcium vs Ovx contr ([1]; 10 μg/kg, MTR/23): 6%; Effect on serum calcium vs 1,25D3 ([1]; 25 μg/kg, MTR/27): <; Effect on serum calcium vs Ovx contr ([1]; 25 μg/kg, MTR/27): 11%; Effect on serum calcium vs 1,25D3 ([1]; 50 μg/kg, MTR/23): No; Effect on serum calcium vs Ovx contr ([1]; 50 μg/kg, MTR/23): 2%; Effect on serum calcium vs 1,25D3 ([1]; 50 μg/kg, MTR/27): =; Effect on serum calcium vs Ovx contr ([1]; 50 μg/kg, MTR/27): 18%; Effect on serum calcium vs 1,25D3 ([1]; 75 μg/kg, MTR/27): =; Effect on serum calcium vs Ovx contr ([1]; 75 μg/kg, MTR/27): 20%; Effect on serum calcium vs 1,25D3 ([1]; 100 μg/kg, MTR/23): No; Effect on serum calcium vs Ovx contr ([1]; 100 μg/kg, MTR/23): −5%; calcaemic effect (adverse effect) compared to 1,25D3 ([1]; summary of Tables 1 to 4): reduced; Effect on bone strength, Femor. Dia., vs 1,25D3 ([2]; 1 μg/kg, MTR/16): <=; Effect on bone strength, Femor. Meta., vs 1,25D3 ([2]; 1 μg/kg, MTR/16): <; Effect on bone strength, L3, vs 1,25D3 ([2]; 1 μg/kg, MTR/16): <; Effect on bone strength, Femor. Dia., vs 1,25D3 ([2]; 10 μg/kg, MTR/16): =; Effect on bone strength, Femor. Meta., vs 1,25D3 ([2]; 10 μg/kg, MTR/16): =; Effect on bone strength, L3, vs 1,25D3 ([2]; 10 μg/kg, MTR/16): >; Effect on bone strength, Femor. Dia., vs 1,25D3 ([2]; 10 μg/kg, MTR/23): <=; Effect on bone strength, Femor. Dia., vs Ovx contr ([2]; 10 μg/kg, MTR/23): −5%; Effect on bone strength, Femor. Meta., vs 1,25D3 ([2]; 10 μg/kg, MTR/23): <; Effect on bone strength, Femor. Meta., vs Ovx contr ([2]; 10 μg/kg, MTR/23): 6%; Effect on bone strength, L3, vs 1,25D3 ([2]; 10 μg/kg, MTR/23): =; Effect on bone strength, L3, vs Ovx contr ([2]; 10 μg/kg, MTR/23): 23%; Effect on bone strength, Femor. Dia., vs 1,25D3 ([2]; 25 μg/kg, MTR/27): >; Effect on bone strength, Femor. Dia., vs Ovx contr ([2]; 25 μg/kg, MTR/27): 9%; Effect on bone strength, Femor. Meta., vs 1,25D3 ([2]; 25 μg/kg, MTR/27): >; Effect on bone strength, Femor. Meta., vs Ovx contr ([2]; 25 μg/kg, MTR/27): 39%; Effect on bone strength, L3, vs 1,25D3 ([2]; 25 μg/kg, MTR/27): <=; Effect on bone strength, L3, vs Ovx contr ([2]; 25 μg/kg, MTR/27): 27%; Effect on bone strength, Femor. Dia., vs 1,25D3 ([2]; 50 μg/kg, MTR/23): =; Effect on bone strength, Femor. Dia., vs Ovx contr ([2]; 50 μg/kg, MTR/23): −1%; Effect on bone strength, Femor. Meta., vs 1,25D3 ([2]; 50 μg/kg, MTR/23): >; Effect on bone strength, Femor. Meta., vs Ovx contr ([2]; 50 μg/kg, MTR/23): 43%; Effect on bone strength, L3, vs 1,25D3 ([2]; 50 μg/kg, MTR/23): >; Effect on bone strength, L3, vs Ovx contr ([2]; 50 μg/kg, MTR/23): 45%; Effect on bone strength, Femor. Dia., vs 1,25D3 ([2]; 50 μg/kg, MTR/27): >; Effect on bone strength, Femor. Dia., vs Ovx contr ([2]; 50 μg/kg, MTR/27): 5%; Effect on bone strength, Femor. Meta., vs 1,25D3 ([2]; 50 μg/kg, MTR/27): >; Effect on bone strength, Femor. Meta., vs Ovx contr ([2]; 50 μg/kg, MTR/27): 31%; Effect on bone strength, L3, vs 1,25D3 ([2]; 50 μg/kg, MTR/27): <; Effect on bone strength, L3, vs Ovx contr ([2]; 50 μg/kg, MTR/27): 22%; Effect on bone strength, Femor. Dia., vs 1,25D3 ([2]; 75 μg/kg, MTR/27): >; Effect on bone strength, Femor. Dia., vs Ovx contr ([2]; 75 μg/kg, MTR/27): 4%; Effect on bone strength, Femor. Meta., vs 1,25D3 ([2]; 75 μg/kg, MTR/27): >>; Effect on bone strength, Femor. Meta., vs Ovx contr ([2]; 75 μg/kg, MTR/27): 50%; Effect on bone strength, L3, vs 1,25D3 ([2]; 75 μg/kg, MTR/27): =; Effect on bone strength, L3, vs Ovx contr ([2]; 75 μg/kg, MTR/27): 38%; Effect on bone strength, Femor. Dia., vs 1,25D3 ([2]; 100 μg/kg, MTR/23): =; Effect on bone strength, Femor. Dia., vs Ovx contr ([2]; 100 μg/kg, MTR/23): −3%; Effect on bone strength, Femor. Meta., vs 1,25D3 ([2]; 100 μg/kg, MTR/23): =; Effect on bone strength, Femor. Meta., vs Ovx contr ([2]; 100 μg/kg, MTR/23): 21%; Effect on bone strength, L3, vs 1,25D3 ([2]; 100 μg/kg, MTR/23): >; Effect on bone strength, L3, vs Ovx contr ([2]; 100 μg/kg, MTR/23): 37%
